In experiment [1] the target is T1, maize endosperm AGPase, large subunit variant GG (Q96G, D161G; numbering of SEQ ID NO: 20) (Zea mays, UniProt P55241+Q84PF5, D161G/Q96G).
T1 sequence (P55241 46-516 D161G/Q96G): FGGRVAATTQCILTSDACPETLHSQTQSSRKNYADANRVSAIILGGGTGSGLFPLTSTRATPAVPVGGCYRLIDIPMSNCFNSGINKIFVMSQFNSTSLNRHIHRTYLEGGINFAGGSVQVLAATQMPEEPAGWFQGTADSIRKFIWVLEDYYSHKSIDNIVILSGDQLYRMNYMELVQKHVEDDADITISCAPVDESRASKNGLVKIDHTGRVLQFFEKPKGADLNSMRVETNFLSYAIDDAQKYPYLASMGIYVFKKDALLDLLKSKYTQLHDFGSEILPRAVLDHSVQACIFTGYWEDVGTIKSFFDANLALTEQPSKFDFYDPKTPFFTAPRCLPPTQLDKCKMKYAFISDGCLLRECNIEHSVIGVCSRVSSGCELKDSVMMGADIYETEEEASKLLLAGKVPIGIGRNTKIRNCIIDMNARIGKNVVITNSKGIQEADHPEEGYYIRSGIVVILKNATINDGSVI
T1 sequence (Q84PF5 1-474): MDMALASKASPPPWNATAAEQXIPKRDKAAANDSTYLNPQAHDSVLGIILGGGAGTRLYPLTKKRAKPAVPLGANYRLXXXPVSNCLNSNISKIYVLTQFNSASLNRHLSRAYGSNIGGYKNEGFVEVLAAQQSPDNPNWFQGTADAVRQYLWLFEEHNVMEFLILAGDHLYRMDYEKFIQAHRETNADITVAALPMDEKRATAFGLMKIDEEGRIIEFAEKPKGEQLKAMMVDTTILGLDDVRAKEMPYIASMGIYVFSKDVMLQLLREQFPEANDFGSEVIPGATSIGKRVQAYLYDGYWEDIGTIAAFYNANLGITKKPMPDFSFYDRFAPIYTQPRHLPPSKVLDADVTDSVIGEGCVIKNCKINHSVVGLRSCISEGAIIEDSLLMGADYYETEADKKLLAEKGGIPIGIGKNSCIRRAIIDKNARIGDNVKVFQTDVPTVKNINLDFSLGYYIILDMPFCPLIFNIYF
As to the kind of experiment: Apparent kinetic constants with 3-PGA, 37° C., GG. The class given is biochemical. The conditions noted are these: read-out: ATP Km. The text has this: The small and large subunit plasmids of maize endosperm AGPase (pMONcBt2 and pMONcSh2, respectively) (Giroux et al., 1996) were expressed in E. coli AC70R1-504 cells (Iglesias et al., 1993) as previously described (Boehlein et al., 2008).
An endpoint assay was used to determine the rate of the AGPase reaction by coupling the formation of PPi to a decrease in NADH concentration (Boehlein et al., 2008). […] The Michaelis constants (Km) were obtained by varying one substrate in the presence of saturating concentrations of the second substrate. The activation constants were obtained by varying the activator at fixed levels of both substrates. All reactions were performed at 37° C. and mixes were prewarmed before starting the reaction with enzyme. […] The absorbance at 340 nm was monitored after 30 min and the amount of PPi produced was determined from a standard curve using PPi in complete reaction mixtures lacking AGPase. Blank samples contained complete reaction mixtures without enzyme and the change in absorbance between the blank and the reaction was used to calculate the amount of PPi produced. […]
The apparent Michaelis constant and maximum velocity of each reaction was calculated from a V vs. S plots using nonlinear regression analysis and the following equation, v=VmaxS/(Km+S), where v is the measured velocity, Vmax is the maximum velocity, S is the substrate concentration. […]

Experiment [2] deals with T2, maize endosperm AGPase, large subunit variant GGR (Q96G, D161G, A443R; numbering of SEQ ID NO: 20) (Zea mays, UniProt P55241+Q84PF5, A443R/D161G/Q96G).
T2 sequence (P55241 46-516 A443R/D161G/Q96G): T1 sequence (P55241 46-516 D161G/Q96G) with A398R
T2 sequence (Q84PF5 1-474): T1 sequence (Q84PF5 1-474)
Kind of experiment: Pi inhibition in the presence of 3-PGA, GGR. The class given is biochemical. The conditions noted are these: read-out: Km (ATP), presence of 3-PGA, ATP varied, Pi inhibition, L-MT.
Excerpt: Inhibition by Pi was then followed in the presence of the activator 3-PGA.

Changes are numbered by the printed parent chain.

For orientation: Km means the substrate concentration at which the rate is half of its maximum.

Turning to `Nc1ncnc2c1ncn2[C@@H]1O[C@H](COP(=O)(O)OP(=O)(O)OP(=O)(O)O)[C@@H](O)[C@H]1O` [ATP], the Km in experiment [1] stood at 31 µM; in experiment [2] it was 110 µM.

Values taken from patent US9650616B2, “Methods for increasing grain yield” (University of Florida Research Foundation, Inc., priority 2014, dated 2017).
